From PMC10235985 (Proceedings of the National Academy of Sciences of the …, 2023)
Blank lines part the entries; values can stand above or below the molecule they belong to.

Tests used:
[1] = system: spinal neurons in NK1R-407 mice; design: species or system mouse; conditions: spinal cord slices
hNK1R-407 mice = assay: Capsaicin-evoked mechanical allodynia; type: in vivo, mouse; conditions: 5 µL intrathecal; for duration of inhibition of capsaicin-evoked mechanical allodynia: 100 nM; for effect of higher dose on magnitude or duration of antinociception: 300 nM
[2] = system: hNK1R-407, hNK1R-311, and wild-type mice; assay: SP-evoked mechanical allodynia; type: in vivo, mouse; conditions: AP 100 nM/5 µL coadministered with SP 1 µg/5 µL intrathecal; hNK1R-407, hNK1R-311, wild-type mice
NK1R [3] = target: T1, NK1R (Homo sapiens, UniProt P25103); assay: ebBRET of SP-evoked mGαsq recruitment to early endosomes; type: cell-based; conditions: antagonist 10 µM added after 5 min SP; one phase decay
NK1R [4] = target: T1, NK1R; assay: cell-based
Nluc-NK1R (human NK1R) [5] = target: T2, Nluc-NK1R (human NK1R) (Homo sapiens, UniProt P25103); assay: biochemical; type: binding
[6] = pKa measurement by potentiometric titration; type: physicochemical; conditions: 67% methanol aqueous solution
human NK1R-NP = human NK1R-NP (Homo sapiens, UniProt P25103); assay: NanoBiT-BRET; type: cell-based; conditions: NT 30 min, n = 5
[7] = logD experiments, distribution between octanol and aqueous buffer; type: physicochemical; conditions: octanol/phosphate buffer, pH 7
NK1R [8] = target: T1, NK1R; assay: Nuclear ERK activity, Nuc-EKAR FRET biosensor, HEK293T cells with human NK1R; type: cell-based
Nluc-NK1R (human NK1R) [9] = target: T2, Nluc-NK1R (human NK1R); assay: NanoBRET saturation binding of TAMRA-NT analogs, membranes from HEK293T cells; conditions: read-out: Kd for Nluc-NK1R; pH 7.4, saturation binding

T1 sequence (P25103 whole entry): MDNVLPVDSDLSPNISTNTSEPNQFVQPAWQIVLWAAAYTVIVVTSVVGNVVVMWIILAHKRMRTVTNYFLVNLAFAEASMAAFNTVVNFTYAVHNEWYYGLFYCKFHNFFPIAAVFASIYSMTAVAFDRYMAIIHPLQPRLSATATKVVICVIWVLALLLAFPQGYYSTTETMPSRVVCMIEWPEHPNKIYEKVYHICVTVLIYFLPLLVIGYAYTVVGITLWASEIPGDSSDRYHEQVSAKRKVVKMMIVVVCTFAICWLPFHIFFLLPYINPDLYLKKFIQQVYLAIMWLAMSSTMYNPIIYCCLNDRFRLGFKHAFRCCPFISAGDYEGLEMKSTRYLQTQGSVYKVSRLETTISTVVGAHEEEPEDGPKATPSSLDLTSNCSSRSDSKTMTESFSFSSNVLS
T2 sequence (P25103 whole entry): as above
Chain of human NK1R-NP (P25103 whole entry): as above

Molecule: C[C@@H](O[C@H]1OCCN(Cc2n[nH]c(=O)[nH]2)[C@H]1c1ccc(F)cc1)c1cc(C(F)(F)F)cc(C(F)(F)F)c1 [AP, aprepitant]
effect on SP-induced excitation of spinal neurons [1]: prevented SP-induced excitation
duration of inhibition of capsaicin-evoked mechanical allodynia (hNK1R-407 mice): 2 h
effect of higher dose on magnitude or duration of antinociception (hNK1R-407 mice): did not further increase the magnitude or duration of the antinociception
effect on SP-evoked mechanical allodynia [2]: abolished

Kinetics of inhibition Endosomal miniGαsq (ebBRET) k for 10 µM (NK1R [3]): 0.14 ± 0.02 (9) min^−1
IC50 (NK1R [4]): 178 nM
Ki (Nluc-NK1R (human NK1R) [5]; Binding affinity BRET (Nluc-NK1R) pKi at pH 6.0): 0.851 nM
Ki (Nluc-NK1R (human NK1R) [5]; Ki (pH 7.4), pH 7.4, tracer PS69): 0.91 nM
pKa [6]: 6.81
IC50 (human NK1R-NP; pIC50, inhibition of mGαsq recruitment to NK1R-NP at the plasma membrane (CAAX), CAAX, plasma membrane): 6.46 nM
IC50 (human NK1R-NP; pIC50, inhibition of mGαsq recruitment to NK1R-NP in early endosomes (FYVE), FYVE, early endosomes): 20 nM
logD [7]: 4.97
IC50 (NK1R [8]): 257 nM
Molecule: Cc1ccccc1-c1cc(N2CCN(C)CC2)ncc1N(C)C(=O)C(C)(C)c1cc(C(F)(F)F)cc(C(F)(F)F)c1 [NT, netupitant]
duration of inhibition of capsaicin-evoked mechanical allodynia (hNK1R-407 mice): 4 h
effect of higher dose on magnitude or duration of antinociception (hNK1R-407 mice): did not further increase the magnitude or duration of the antinociception

Molecule: PS68: fluorescent tetramethylrhodamine (TAMRA) derivative of NT, also referred to as TAMRA-NT
Kd (Nluc-NK1R (human NK1R) [9]): 1.9 ± 0.39 nM

Kd (Nluc-NK1R (human NK1R) [9]): 0.81 ± 0.065 nM
Molecule: PS69: fluorescent TAMRA derivative of NT used as tracer in competition binding
